Inconclusive results and toxic doses are left out. No stated cut-off is given here; in the data, active means T/C of 150% or more; inactive means T/C below 125%.
System: L1210 leukemia ip in BDF1 mice, survival T/C
Experiment: NCI In Vivo Anticancer Drug Screen. Data for tumor model L1210 Leukemia (intraperitoneal) in B6D2F1 (BDF1) mice
Conditions: endpoint: mean survival time, higher = longer survival
How it was run: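 In this screen, tumor-bearing mice given compound are compared to those given vehicle, and their survival values are reported as a treated-to-control quotient.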

[1] = dose: 400.0 mg/kg/injection, schedule: Q01DX001 (ip), vehicle: carboxymethylcellulose (CMC)
[2] = dose: 100.0 mg/kg/injection, schedule: Q01DX009 (ip), vehicle: saline with Tween-80
[3] = dose: 100.0 mg/kg/injection, schedule: Q04DX003 (ip), vehicle: saline with Tween-80
[4] = dose: 200.0 mg/kg/injection, schedule: Q01DX009 (ip), vehicle: saline with Tween-80
[5] = dose: 200.0 mg/kg/injection, schedule: Q04DX003 (ip), vehicle: saline with Tween-80
[6] = dose: 400.0 mg/kg/injection, schedule: Q01DX009 (ip), vehicle: saline with Tween-80
[7] = dose: 400.0 mg/kg/injection, schedule: Q04DX003 (ip), vehicle: saline with Tween-80
[8] = dose: 100.0 mg/kg/injection, schedule: Q04DX002 (ip), vehicle: Klucel (hydroxypropylcellulose) (HPC)
[9] = dose: 200.0 mg/kg/injection, schedule: Q04DX002 (ip), vehicle: Klucel (hydroxypropylcellulose) (HPC)
[10] = dose: 400.0 mg/kg/injection, schedule: Q04DX002 (ip), vehicle: Klucel (hydroxypropylcellulose) (HPC)
[11] = dose: 100.0 mg/kg/injection, schedule: Q04DX003 (ip), vehicle: Klucel (hydroxypropylcellulose) (HPC)
[12] = dose: 200.0 mg/kg/injection, schedule: Q04DX003 (ip), vehicle: Klucel (hydroxypropylcellulose) (HPC)
[13] = dose: 400.0 mg/kg/injection, schedule: Q04DX003 (ip), vehicle: Klucel (hydroxypropylcellulose) (HPC)
[14] = dose: 50.0 mg/kg/injection, schedule: Q01DX009 (ip), vehicle: saline with Tween-80

Measured: T/C

O=C1C2CC=CCC2C(=O)N1SC(Cl)(Cl)Cl (stereo not drawn)
inactive: dose: 0.78 mg/kg/injection, schedule: Q01DX009 (ip), vehicle: saline with Tween-80 107 % of control | dose: 1.56 mg/kg/injection, schedule: Q01DX009 (ip), vehicle: saline with Tween-80 104 % of control | dose: 3.12 mg/kg/injection, schedule: Q01DX009 (ip), vehicle: saline with Tween-80 103 % of control | dose: 6.25 mg/kg/injection, schedule: Q01DX009 (ip), vehicle: saline with Tween-80 103 % of control | dose: 12.5 mg/kg/injection, schedule: Q01DX009 (ip), vehicle: saline with Tween-80 97 % of control | dose: 25.0 mg/kg/injection, schedule: Q01DX009 (ip), vehicle: saline with Tween-80 98 % of control

Nc1ncnc2c1ncn2C1OC(C(O)CO)C(O)C1N (stereo not drawn)
inactive: dose: 50.0 mg/kg/injection, schedule: Q01DX001 (ip), vehicle: carboxymethylcellulose (CMC) 111 % of control | dose: 100.0 mg/kg/injection, schedule: Q01DX001 (ip), vehicle: carboxymethylcellulose (CMC) 105 % of control | dose: 200.0 mg/kg/injection, schedule: Q01DX001 (ip), vehicle: carboxymethylcellulose (CMC) 108 % of control | [1] 108 % of control

CC(=O)NCC(=O)c1ccc(Cl)cc1
inactive: [2] 103 % of control | [3] 102 % of control | [4] 104 % of control | [5] 102 % of control | [6] 121 % of control | [7] 96 % of control

CNCC(=O)Nc1ccc(NC(=O)CNC)cc1
inactive: [8] 96 % of control | [9] 104 % of control

CC(=O)Cc1cc(C)nc(/N=C(\N)N2CCCCC2)n1
inactive: [8] 92 % of control | [9] 103 % of control | [10] 96 % of control

Cc1cc(NC(=O)C(=O)Nc2cc(C)on2)no1
inactive: dose: 100.0 mg/kg/injection, schedule: Q01DX009 (ip), vehicle: Klucel (hydroxypropylcellulose) (HPC) 93 % of control | dose: 200.0 mg/kg/injection, schedule: Q01DX009 (ip), vehicle: Klucel (hydroxypropylcellulose) (HPC) 100 % of control | dose: 400.0 mg/kg/injection, schedule: Q01DX009 (ip), vehicle: Klucel (hydroxypropylcellulose) (HPC) 93 % of control

O=C(O)c1cc(N=Nc2ccccc2C(=O)O)ccc1O
inactive: [11] 92 % of control | [12] 94 % of control | [13] 112 % of control

CC1(C)OC2OCC(O)C2O1 (stereo not drawn)
inactive: dose: 50.0 mg/kg/injection, schedule: Q04DX002 (ip), vehicle: saline 100 % of control | dose: 100.0 mg/kg/injection, schedule: Q04DX002 (ip), vehicle: saline 104 % of control | dose: 200.0 mg/kg/injection, schedule: Q04DX002 (ip), vehicle: saline 110 % of control

O=[N+]([O-])c1cccc(-c2ccccc2)c1Br
inactive: [2] 94 % of control | [11] 93 % of control | [4] 93 % of control | [12] 96 % of control | [6] 94 % of control | [13] 94 % of control

COc1ccc(/C=C/C(=O)c2ccc(OC)c(OC)c2)cc1O
inactive: dose: 100.0 mg/kg/injection, schedule: Q01DX009 (ip), vehicle: saline 96 % of control | dose: 100.0 mg/kg/injection, schedule: Q04DX003 (ip), vehicle: saline 95 % of control | dose: 200.0 mg/kg/injection, schedule: Q01DX009 (ip), vehicle: saline 120 % of control | dose: 200.0 mg/kg/injection, schedule: Q04DX003 (ip), vehicle: saline 98 % of control | dose: 400.0 mg/kg/injection, schedule: Q01DX009 (ip), vehicle: saline 91 % of control | dose: 400.0 mg/kg/injection, schedule: Q04DX003 (ip), vehicle: saline 95 % of control

O=C1c2ccccc2C(=O)c2c(Nc3cccc(S(=O)(=O)N(CCO)CCO)c3)ccc(O)c21
inactive: [14] 97 % of control | [2] 97 % of control | [4] 97 % of control

O=C(c1ccccc1)c1c2ccccc2cc2ccccc12
inactive: [14] 91 % of control | [2] 90 % of control | [3] 89 % of control | [5] 89 % of control | [7] 90 % of control

Cc1cc(N(CCOS(C)(=O)=O)CCOS(C)(=O)=O)ccc1C=Nc1cccc(Cl)c1
inactive: dose: 20.0 mg/kg/injection, schedule: Q04DX003 (ip), vehicle: Klucel (hydroxypropylcellulose) (HPC) 107 % of control | dose: 40.0 mg/kg/injection, schedule: Q04DX003 (ip), vehicle: Klucel (hydroxypropylcellulose) (HPC) 115 % of control | dose: 80.0 mg/kg/injection, schedule: Q04DX003 (ip), vehicle: Klucel (hydroxypropylcellulose) (HPC) 107 % of control | [11] 120 % of control

O=C1/C(=C/c2ccccc2)CCC2CCCCC12 (stereo not drawn)
inactive: [3] 94 % of control | [5] 100 % of control | [7] 94 % of control

C=CC[P+](C)(c1ccccc1)c1ccccc1
inactive: dose: 3.13 mg/kg/injection, schedule: Q01DX009 (ip), vehicle: saline 106 % of control

CCOCc1ccc(O)c2ncccc12
inactive: dose: 264.0 mg/kg/injection, schedule: Q01DX001 (ip), vehicle: carboxymethylcellulose (CMC) 106 % of control | [1] 107 % of control

N#Cc1ccc(NC(=O)NNC(=O)CCCC(=O)NNC(=O)Nc2ccc(C#N)cc2)cc1
inactive: dose: 50.0 mg/kg/injection, schedule: Q01DX001 (ip), vehicle: saline 95 % of control | dose: 100.0 mg/kg/injection, schedule: Q01DX001 (ip), vehicle: saline 97 % of control | dose: 200.0 mg/kg/injection, schedule: Q01DX001 (ip), vehicle: saline 101 % of control | dose: 400.0 mg/kg/injection, schedule: Q01DX001 (ip), vehicle: saline 95 % of control

Nc1cccnc1Cl
inactive: dose: 100.0 mg/kg/injection, schedule: Q01DX009 (ip), vehicle: alcohol 100 % of control | dose: 100.0 mg/kg/injection, schedule: Q04DX003 (ip), vehicle: other 92 % of control | dose: 200.0 mg/kg/injection, schedule: Q01DX009 (ip), vehicle: alcohol 96 % of control | dose: 200.0 mg/kg/injection, schedule: Q04DX003 (ip), vehicle: other 90 % of control | dose: 400.0 mg/kg/injection, schedule: Q01DX009 (ip), vehicle: alcohol 96 % of control | dose: 400.0 mg/kg/injection, schedule: Q04DX003 (ip), vehicle: other 93 % of control

c1ccc(CN2CCn3nccc32)cc1
inactive: dose: 25.0 mg/kg/injection, schedule: Q01DX009 (ip), vehicle: other 104 % of control | dose: 50.0 mg/kg/injection, schedule: Q01DX009 (ip), vehicle: other 96 % of control | dose: 100.0 mg/kg/injection, schedule: Q01DX009 (ip), vehicle: other 104 % of control | dose: 200.0 mg/kg/injection, schedule: Q01DX009 (ip), vehicle: other 95 % of control

COc1ccc(NC(=S)N(C)C)cc1
inactive: [2] 98 % of control | [4] 110 % of control | [6] 98 % of control

O=[N+]([O-])CC(O)C(F)(F)C(F)(F)C(F)(F)F (stereo not drawn)
inactive: [11] 105 % of control | [12] 100 % of control | [13] 100 % of control

OC1(c2ccccc2)c2ccccc2C(O)(c2ccccc2)c2cc3c(cc21)CCCC3 (stereo not drawn)
inactive: [8] 102 % of control | [9] 91 % of control | [10] 91 % of control
